# Test results: US7384927B2, “Alkylated porphyrins as pesticides acting both in the presence and absence of light” (priority 2003, dated 2008)
# Legend:
# Format in all cases: in vivo
# [1] = tested on: Bactrocera oleae (olive fly); experiment: Uptake of alkylated porphyrins by flies fed porphyrin-containing bait; conditions: B. oleae
# Method: (§1) Porphyrins: • a) meso[tri(N-methyl-pyridyl), mono(N-dodecyl-pyridyl)]porphine (abbr.: C12) • b) meso[tri(N-methyl-pyridyl), mono(N-tetradecyl-pyridyl)]porphine (abbr.: C14) • c) meso[tri(N-methyl-pyridyl), mono(N-octadecyl-pyridyl)]porphine (abbr.: C18) Bait: Aqueous solution containing 10% sucrose and 1% autolysed yeast Flies: • a) Ceratitis capitata (fruit fly) age: 1 week; weight: 5-6 mg • b) Bactrocera oleae (olive fly) age: 10 days; weight: 4-4.5 mg • c) Stomoxis calcitrans (stable fly) age: 10 days; weight: 12 mg Irradiation: • a) High pressure halogen lamp, equipped with infrared and UV filters, emission 360-850 nm, operated at intensities in the 760-2,000 μE s^−1m^−2 range • b) Sunlight, mid June at Padua latitude, average intensity of […] μE s^−1m^−2 with minimum and maximum values of 950 and, respectively, 1,380 μE s^−1m^−2
# (§2) An appropriate number of flies (50 flies per each experiment) was caged in 115×55×70 mm Plexiglas cages with several holes (ø=0.5 mm) and starved for 36 h. Then, depending on the protocol to be adopted for each specific experiment, the flies were fed with the bait (10% sucrose and 1% autolysed yeast in neutral aqueous solution), which was either porphyrin-free or added with a predetermined concentration of the porphyrin. These flies were then used in the various experimental sessions.
# (§3) At predetermined times, the flies were sacrificed by freezing; the dead flies were then homogenized with a Polytron in 10 ml of a 2% aqueous solution of sodium dodecylsulphate (SDS). The suspension was centrifuged for 10 min at 2,000 rpm, the pellet was discarded and known aliquots of the supernatant were diluted by means of a chloroform/methanol binary mixture (1/2, v/v). The porphyrin concentration was measured by reading the fluorescence emitted at wavelengths above 630 nm and interpolating the emission intensity with a calibration plot obtained with known amounts of the porphyrin. The results were expressed as nanomoles of porphyrin recovered per fly.
# [2] = tested on: Ceratitis capitata (fruit fly); experiment: as above; conditions: C. capitata
# Method: as §1, §2, §3
# [3] = tested on: Stomoxis calcitrans (stable fly); experiment: as above; conditions: S. calcitrans
# Method: as §1, §2, §3
# [4] = tested on: Bactrocera oleae (olive fly); experiment: Release of alkylated porphyrin from flies after feeding with bait interrupted; conditions: B. oleae, 1.25 μM porphyrin in the bait
# Method: as §2, §3
# [5] = tested on: Ceratitis capitata (fruit fly); experiment: as above; conditions: C. capitata, 1.25 μM porphyrin in the bait
# Method: as §2, §3
# [6] = tested on: Stomoxis calcitrans (stable fly); experiment: as above; conditions: S. calcitrans, 1.25 μM porphyrin in the bait
# Method: as §2, §3
# Bactrocera oleae flies = experiment: Insecticidal action in the dark: fly survival after porphyrin bait; conditions: fed 24 h, survival 12 h after change to porphyrin-free bait
# Method: (§4) These flies were then used in the various experimental sessions. […] The number of survivors was evaluated 12 h after switching from administration of a porphyrin-containing bait to a porphyrin-free bait. In none of the experiments was mortality or any apparent toxic effect observed in control flies (flies not fed with porphyrin, see survival at 0 μM porphyrin concentration).
# [7] = tested on: Stomoxis calcitrans flies; experiment: as above; conditions: fed 24 h, survival 12 h after change to porphyrin-free bait
# Method: as §4
# Ceratitis capitata flies [8] = experiment: Photoinsecticidal action: fly survival after bait and visible light irradiation (artificial lamp); conditions: for Survival (% of control untreated flies): survival 10 h after irradiation
# Method: as §1
# The irradiations were performed for 1 h, then the flies were kept in dim light for monitoring the survival. Control flies were irradiated under identical conditions after feeding with a porphyrin-free bait.
# The irradiations were performed for 1 h at a fluence-rate of 1220 μE s^−1m^−2. The survival was evaluated 10 h after the end of irradiation. […] The porphyrins are abbreviated as following: HP: haematoporphyrin; C1: meso-tetra(N-methyl-pyridyl)porphine.
# The survival was evaluated 10 h after the end of irradiation.
# as §2, with “sessions. […]” for “sessions.”
# Ceratitis capitata flies [9] = experiment: Photoinsecticidal action: fly survival after bait and sunlight irradiation; conditions: 3 μM in bait, 12 h after feeding, survival 1 h after irradiation
# Method: as §1
# The survival was evaluated 1 h after the end of irradiation.
# as §2
# [10] = exposure time to bait 3 h, porphyrin in bait 1.24 μM
# [11] = exposure time to bait 12 h, porphyrin in bait 1.24 μM
# [12] = exposure time to bait 24 h, porphyrin in bait 1.24 μM
# [13] = porphyrin concentration in bait 0.75 (μmoles), feeding 24 h
# [14] = porphyrin concentration in bait 1.25 (μmoles), feeding 24 h
# [15] = porphyrin concentration in bait 2.10 (μmoles), feeding 24 h
# [16] = porphyrin concentration in bait 3.50 (μmoles), feeding 24 h
# [17] = porphyrin concentration in bait 6.00 (μmoles), feeding 24 h
structure (smiles),measurement,setting,value
"CCCCCCCCCCCCCC[n+]1ccc(-c2c3nc(c(-c4cc[n+](C)cc4)c4ccc([nH]4)c(-c4cc[n+](C)cc4)c4nc(c(-c5cc[n+](C)cc5)c5ccc2[nH]5)C=C4)C=C3)cc1 [C14, meso[tri(N-methyl-pyridyl), mono(N-tetradecyl-pyridyl)]porphine]",Recoveries (nmoles of porphyrin per fly),[1]; [10],2.2 nmoles of porphyrin per fly
same,Recoveries (nmoles of porphyrin per fly),[1]; [11],3.7 nmoles of porphyrin per fly
same,Recoveries (nmoles of porphyrin per fly),[1]; [12],4.8 nmoles of porphyrin per fly
same,Recoveries (nmoles of porphyrin per fly),[1]; [13],3.9 nmoles of porphyrin per fly
same,Recoveries (nmoles of porphyrin per fly),[1]; [14],4.8 nmoles of porphyrin per fly
same,Recoveries (nmoles of porphyrin per fly),[1]; [15],8.5 nmoles of porphyrin per fly
same,Recoveries (nmoles of porphyrin per fly),[1]; [16],10.6 nmoles of porphyrin per fly
same,Recoveries (nmoles of porphyrin per fly),[1]; [17],13.8 nmoles of porphyrin per fly
same,Recoveries (nmoles of porphyrin per fly),[2]; [10],2.9 nmoles of porphyrin per fly
same,Recoveries (nmoles of porphyrin per fly),[2]; [11],5.3 nmoles of porphyrin per fly
same,Recoveries (nmoles of porphyrin per fly),[2]; [12],5.7 nmoles of porphyrin per fly
same,Recoveries (nmoles of porphyrin per fly),[2]; [13],2.6 nmoles of porphyrin per fly
same,Recoveries (nmoles of porphyrin per fly),[2]; [14],5.7 nmoles of porphyrin per fly
same,Recoveries (nmoles of porphyrin per fly),[2]; [15],9.6 nmoles of porphyrin per fly
same,Recoveries (nmoles of porphyrin per fly),[2]; [16],11.5 nmoles of porphyrin per fly
same,Recoveries (nmoles of porphyrin per fly),[2]; [17],14.0 nmoles of porphyrin per fly
same,Recoveries (nmoles of porphyrin per fly),[3]; [10],2.4 nmoles of porphyrin per fly
same,Recoveries (nmoles of porphyrin per fly),[3]; [11],5.6 nmoles of porphyrin per fly
same,Recoveries (nmoles of porphyrin per fly),[3]; [12],6.2 nmoles of porphyrin per fly
same,Recoveries (nmoles of porphyrin per fly),[3]; [13],4.1 nmoles of porphyrin per fly
same,Recoveries (nmoles of porphyrin per fly),[3]; [14],6.2 nmoles of porphyrin per fly
same,Recoveries (nmoles of porphyrin per fly),[3]; [15],10.2 nmoles of porphyrin per fly
same,Recoveries (nmoles of porphyrin per fly),[3]; [16],12.5 nmoles of porphyrin per fly
same,Recoveries (nmoles of porphyrin per fly),[3]; [17],12.8 nmoles of porphyrin per fly
same,"Recoveries (nmoles of porphyrin per fly), release",[4]; 12 h after feeding interrupted,3.2 nmoles of porphyrin per fly
same,"Recoveries (nmoles of porphyrin per fly), release",[4]; 24 h after feeding interrupted,2.0 nmoles of porphyrin per fly
same,"Recoveries (nmoles of porphyrin per fly), release",[4]; 48 h after feeding interrupted,0.6 nmoles of porphyrin per fly
same,"Recoveries (nmoles of porphyrin per fly), release",[5]; 12 h after feeding interrupted,3.0 nmoles of porphyrin per fly
same,"Recoveries (nmoles of porphyrin per fly), release",[5]; 24 h after feeding interrupted,1.8 nmoles of porphyrin per fly
same,"Recoveries (nmoles of porphyrin per fly), release",[5]; 48 h after feeding interrupted,0.7 nmoles of porphyrin per fly
same,"Recoveries (nmoles of porphyrin per fly), release",[6]; 12 h after feeding interrupted,4.3 nmoles of porphyrin per fly
same,"Recoveries (nmoles of porphyrin per fly), release",[6]; 24 h after feeding interrupted,2.2 nmoles of porphyrin per fly
same,"Recoveries (nmoles of porphyrin per fly), release",[6]; 48 h after feeding interrupted,0.8 nmoles of porphyrin per fly
same,Survival (% of control untreated flies),Bactrocera oleae flies; 0.75 μM in bait,100 % of control untreated flies
same,Survival (% of control untreated flies),Bactrocera oleae flies; 1.25 μM in bait,100 % of control untreated flies
same,Survival (% of control untreated flies),Bactrocera oleae flies; 2.10 μM in bait,69 % of control untreated flies
same,Survival (% of control untreated flies),Bactrocera oleae flies; 3.00 μM in bait,50 % of control untreated flies
same,Survival (% of control untreated flies),Bactrocera oleae flies; 5.00 μM in bait,37 % of control untreated flies
same,Survival (% of control untreated flies),Bactrocera oleae flies; 8.10 μM in bait,19 % of control untreated flies
same,Survival (% of control untreated flies),[7]; 0.75 μM in bait,100 % of control untreated flies
same,Survival (% of control untreated flies),[7]; 1.25 μM in bait,77 % of control untreated flies
same,Survival (% of control untreated flies),[7]; 2.10 μM in bait,52 % of control untreated flies
same,Survival (% of control untreated flies),[7]; 3.00 μM in bait,31 % of control untreated flies
same,Survival (% of control untreated flies),[7]; 5.00 μM in bait,11 % of control untreated flies
same,Survival (% of control untreated flies),[7]; 8.10 μM in bait,3 % of control untreated flies
same,Survival (% of control untreated flies),"Ceratitis capitata flies [8]; 3 μM in bait 24 h, time interval feeding-irradiation 0 h, irradiation 1 h at 1220 μE s^−1m^−2",0 % of control untreated flies
same,Survival (% of control untreated flies),"Ceratitis capitata flies [8]; 3 μM in bait 24 h, time interval feeding-irradiation 12 h, irradiation 1 h at 1220 μE s^−1m^−2",0 % of control untreated flies
same,Survival (% of control untreated flies),"Ceratitis capitata flies [8]; 3 μM in bait 24 h, time interval feeding-irradiation 24 h, irradiation 1 h at 1220 μE s^−1m^−2",10 % of control untreated flies
same,Survival (% of control untreated flies),"Ceratitis capitata flies [8]; 3 μM in bait 24 h, time interval feeding-irradiation 48 h, irradiation 1 h at 1220 μE s^−1m^−2",21 % of control untreated flies
same,Survival (% of control untreated flies),"Ceratitis capitata flies [8]; 3 μM in bait, fluence-rate 760 μE s^−1m^−2, irradiated 24 h after feeding (title)",10 % of control untreated flies
same,Survival (% of control untreated flies),"Ceratitis capitata flies [8]; 3 μM in bait, fluence-rate 1220 μE s^−1m^−2, irradiated 24 h after feeding (title)",0 % of control untreated flies
same,Survival (% of control untreated flies),"Ceratitis capitata flies [8]; 3 μM in bait, fluence-rate 1500 μE s^−1m^−2, irradiated 24 h after feeding (title)",0 % of control untreated flies
same,Survival (% of control untreated flies),"Ceratitis capitata flies [8]; 3 μM in bait, fluence-rate 2000 μE s^−1m^−2, irradiated 24 h after feeding (title)",0 % of control untreated flies
same,time by which essentially all flies died,Ceratitis capitata flies [8]; after 1 h illumination with artificial light or sunlight,≤ 45 min
same,photoinsecticidal action compared among alkylated porphyrins,Ceratitis capitata flies [8]; irradiation with visible light or sunlight,most efficient insecticidal action
same,Survival (% of control untreated flies),Ceratitis capitata flies [9]; sunlight (average 1150 μE s^−1m^−2) 15 min,21 % of control untreated flies
same,Survival (% of control untreated flies),Ceratitis capitata flies [9]; sunlight (average 1150 μE s^−1m^−2) 30 min,10 % of control untreated flies
same,Survival (% of control untreated flies),Ceratitis capitata flies [9]; sunlight (average 1150 μE s^−1m^−2) 45 min,0 % of control untreated flies
same,Survival (% of control untreated flies),Ceratitis capitata flies [9]; sunlight (average 1150 μE s^−1m^−2) 60 min,0 % of control untreated flies
